Laboratory results published in PMC9020721, “Characterization of BLUF-photoreceptors present in Acinetobacter nosocomialis” (PLoS ONE, 2022).

What was measured:
AnBLUF65 = target: T1, AnBLUF65 (Acinetobacter nosocomialis, UniProt A0AA36P071); experiment: UV-vis absorption and fluorescence emission of the co-purified flavin; type: binding; settings: 20 mM Tris-HCl, 200 mM NaCl, pH 8.0, 15 °C; flavin as purified with the protein, fully oxidized; flavin identity assigned by the authors, no separate analysis
T1 construct: gene ANICBIBUN_09924; full length, 156 residues, N-terminal His-tag, synthetic gene in pET28a(+), E. coli BL21 (pLysS), Ni-NTA
T1 sequence (A0AA36P071 1-156): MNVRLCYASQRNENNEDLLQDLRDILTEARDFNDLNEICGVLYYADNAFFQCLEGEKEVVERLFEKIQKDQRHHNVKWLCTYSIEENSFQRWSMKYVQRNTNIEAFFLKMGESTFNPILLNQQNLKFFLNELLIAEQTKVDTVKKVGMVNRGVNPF

AnBLUF46 = target: T2, AnBLUF46 (Acinetobacter nosocomialis, UniProt A0AA36NWK2); experiment: as above; type: binding; settings: 20 mM Tris-HCl, 200 mM NaCl, pH 8.0, 15 °C; flavin as purified with the protein, fully oxidized; flavin identity assigned by the authors, no separate analysis
T2 construct: gene ANICBIBUN_11750; full length, 147 residues, N-terminal His-tag, pET28-TEV, E. coli BL21 (pLysS), Ni-NTA; tag cleavage not mentioned
T2 sequence (A0AA36NWK2 1-147): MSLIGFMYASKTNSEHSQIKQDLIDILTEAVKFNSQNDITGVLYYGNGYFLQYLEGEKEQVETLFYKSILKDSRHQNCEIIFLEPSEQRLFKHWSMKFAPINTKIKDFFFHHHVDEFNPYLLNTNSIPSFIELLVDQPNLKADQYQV

## Cc1cc2nc3c(=O)[nH]c(=O)nc-3n(C[C@H](O)[C@H](O)[C@H](O)COP(=O)(O)OP(=O)(O)OC[C@H]3O[C@@H](n4cnc5c(N)ncnc54)[C@H](O)[C@@H]3O)c2cc1C [FAD]
AnBLUF65
  UV-vis absorption and fluorescence emission of the co-purified flavin: blue-shifted compared with free FAD in the same working buffer
AnBLUF46
  UV-vis absorption and fluorescence emission of the co-purified flavin: blue-shifted compared with free FAD in the same working buffer
